Where a SMILES comes first, the peptide text is derived from it. The star is where a group is joined. Dansyl = CN(C)c1cccc2c(S(=O)(=O)*)cccc12
Tests used:
CaPFTase = test: Continuous fluorescence kinetic assay of dansylated Ds-GCa1a2X peptides; type: biochemical, Candida albicans; conditions: greater with CaPFTase, Table S4
yPFTase = biological target: T1, yPFTase (Saccharomyces cerevisiae, UniProt P22007+P29703); test: as above; type: biochemical; conditions: greater with yPFTase, Table S4
T1 sequence (P22007 1-431): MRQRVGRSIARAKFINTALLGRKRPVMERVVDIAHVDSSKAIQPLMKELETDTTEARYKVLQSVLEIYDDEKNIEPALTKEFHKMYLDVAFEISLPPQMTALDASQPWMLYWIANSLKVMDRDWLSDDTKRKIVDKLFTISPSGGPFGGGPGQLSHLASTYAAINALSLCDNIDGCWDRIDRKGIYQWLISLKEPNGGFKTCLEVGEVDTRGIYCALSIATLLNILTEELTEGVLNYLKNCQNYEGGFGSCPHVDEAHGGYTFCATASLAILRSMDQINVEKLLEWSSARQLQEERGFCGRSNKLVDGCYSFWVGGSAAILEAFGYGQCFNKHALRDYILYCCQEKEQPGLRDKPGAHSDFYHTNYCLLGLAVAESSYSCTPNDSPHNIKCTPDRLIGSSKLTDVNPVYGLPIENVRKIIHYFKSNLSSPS
T1 sequence (P29703 1-316 partner): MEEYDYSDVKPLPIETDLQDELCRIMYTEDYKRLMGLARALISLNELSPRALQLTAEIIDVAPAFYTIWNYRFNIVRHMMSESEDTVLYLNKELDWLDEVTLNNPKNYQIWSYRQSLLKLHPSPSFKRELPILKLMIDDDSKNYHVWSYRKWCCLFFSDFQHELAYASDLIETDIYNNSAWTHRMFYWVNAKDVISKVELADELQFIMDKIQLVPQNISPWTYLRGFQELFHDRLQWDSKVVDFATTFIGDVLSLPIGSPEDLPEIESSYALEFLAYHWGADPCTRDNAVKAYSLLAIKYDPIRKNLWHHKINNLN

| kcat/KM of CaPFTase compared with rPFTase (CaPFTase) | kcat/KM of yPFTase compared with rPFTase (yPFTase) | Compound |
| --- | --- | --- |
| 6.2 fold |  | CC(C)[C@H](NC(=O)[C@@H](NC(=O)[C@@H](NC(=O)[C@H](CS)NC(=O)CNS(=O)(=O)c1cccc2c(N(C)C)cccc12)C(C)C)C(C)C)C(=O)O [Ds-GCVVV] (Dansyl-GCVVV-OH) |
|  | 11 fold | Ds-GCVTN |

Reference: PMC4136699 (ACS Chemical Biology, 2014)
